{
  "source": "patent US20190022239A1",
  "about": "“NOVEL BIOMOLECULE CONJUGATES AND USES THEREFOR” (The University of Western Australia, priority 2016, published 2019)",
  "key": {"[1]": {"tested_on": "RIP-Tag insulinoma", "test": "Tumour ECM content (collagen-1, laminin, nidogen-1)", "type": "in vivo, mice", "conditions": "2 μg or 5 μg i.v. daily for five days", "experimental": "As evidenced by analysis of the ECM components collagen-1, laminin and nidogen-1, intravenous injection of TNFα-CSG at a dose of 2 μg or 5 μg daily for five days to mice having a RIP-Tag insulinoma, specifically reduces tumour ECM content (FIG. 9)."}, "[2]": {"tested_on": "4T1 tumours", "test": "Tumour clearance, whole microscopic images of 4T1 tumours", "type": "in vivo, mice", "conditions": "10 μg for five days"}, "[3]": {"test": "Toxicity of repeated intravenous injections", "type": "in vivo", "conditions": "0.5-10 μg daily i.v., total of 8 injections", "experimental": "To determine potential toxicity effects of TNFα-CSG, the inventors then administered TNFα-CSG intravenously to mice (n=6) at a dose ranging from 0.5-10 μg daily, to a total of 8 injections. TNFα-CSG is non-toxic at these doses and frequency."}, "[4]": {"tested_on": "hepatocellular carcinoma", "test": "Immune cell infiltration in hepatocellular carcinoma (FACS)", "type": "in vivo, mice", "conditions": "2 μg daily i.v. for 5 days, healthy livers", "experimental": "Mice bearing hepatocellular carcinoma at 10 weeks of age were treated with 2 μg TNFα-CSG or control CSG peptide (in 100 μL) by daily intravenous injection for 5 days. The experiment was also conducted on mice with normal, healthy livers, FACS quantification of CD4+ and CD8+ T cells and infiltrating macrophages (CD11b+/CD68+) in whole tumours is shown in FIG. 7. Quantitative analysis of these tumours show at least 3 fold increase in immune cell infiltration compared to CSG-treated tumours (P<0.05)."}, "[5]": {"tested_on": "atherosclerotic plaque", "test": "TNFα-CSG therapy of aging ApoE null mice", "conditions": "for ALT / AST / Troponin: plasma, median (interquartile range)", "description": "Aging ApoE null mice were treated with 10 μg TNFα-CSG or 0.8 μg CSG peptide daily for five days by intravenous injection. Tissue, including aorta and plasma, were collected from euthanised animals at 70 weeks of age. Plasma samples were collected after 1 and 10 weeks of therapy and assessed for markers of (i) circulating cholesterol (total cholesterol, HDL and LDL), (ii) cardiac necrosis (troponin) and (iii) liver damage (alanine transaminase, ALT and aspartate transaminase, AST)."}},
  "note": "“Also recorded” adds a separate entry of the source.",
  "data": [
    {"substance": "TNFα-CSG: Mature murine TNFα (SEQ ID NO:6) with C-terminal conjugated peptide CSGRRSSKC connected via a GGG linker; recombinant fusion protein", "values": [
      {"measurement": "ECM content in normal pancreas", "setting": "[1]", "value": "remained unaltered"},
      {"measurement": "tumour ECM content (collagen-1, laminin, nidogen 1, excluding basement membrane)", "setting": "[1]", "value": "significant reduction in ECM content"},
      {"measurement": "tumour clearance (hypoxia marker staining)", "setting": "[2]", "value": "large areas at the centre of the tumour devoid of tumour cells"},
      {"measurement": "toxicity", "setting": "[3]", "value": "non-toxic"},
      {"measurement": "effect on immune cell infiltration in normal liver", "setting": "[4]", "value": "no effect on normal liver"},
      {"measurement": "plaque burden (plaque positive area)", "setting": "[5]; 10 μg daily i.v. for five days", "value": "significantly reduced plaque burden"},
      {"measurement": "circulating HDL levels", "setting": "[5]; 10 weeks after administration", "value": "increase in circulating HDL levels; also recorded: significantly increased"},
      {"measurement": "circulating LDL", "setting": "[5]; 10 weeks after administration", "value": "reduction in LDL"},
      {"measurement": "plasma LDL:HDL ratio", "setting": "[5]; 10 weeks after therapy", "value": "reduced"},
      {"measurement": "plasma LDL:HDL ratio", "setting": "[5]; after 1 week of therapy", "value": "increased"},
      {"measurement": "activated endothelia (CD31+, endoglin+) in plaque intima", "setting": "[5]; mouse, in vivo", "value": "increased the expression of activate endothelia"},
      {"measurement": "macrophage content (CD11b+) in plaque", "setting": "[5]; mouse, in vivo", "value": "reduced macrophage content"},
      {"measurement": "ECM in plaque intima (collagen I, collagen IV, laminin)", "setting": "[5]; mouse, in vivo, iv", "value": "degraded ECM in plaque intima"},
      {"measurement": "cardiac or liver toxicity", "setting": "[5]; plasma troponin, ALT, AST", "value": "did not elevate cardiac or liver toxicity"},
      {"measurement": "ALT", "setting": "[5]; 1 week", "value": "33.3 (15.4-115.5) U/L"},
      {"measurement": "AST", "setting": "[5]; 1 week", "value": "106 (74.0-195.5) U/L"},
      {"measurement": "Troponin", "setting": "[5]; 1 week", "value": "15.3 (10.7-30.2) ng/L"},
      {"measurement": "ALT", "setting": "[5]; 10 weeks", "value": "26.0 (18.5-79.8) U/L"},
      {"measurement": "AST", "setting": "[5]; 10 weeks", "value": "81.5 (52.3-184.3) U/L"},
      {"measurement": "Troponin", "setting": "[5]; 10 weeks", "value": "15.1 (5.7-24.0) ng/L"}
    ]}
  ]
}
